The source of these data is paper PMC5923274 (Drug Design, Development and Therapy, 2018).

Read-outs that look alike come from different tables or passages of the source.

The target in data set [1] is T1, recombinant Nampt (Homo sapiens, UniProt P43490). To be noted: cited from earlier work.
The target of data set [2] is T1, recombinant Nampt. The data set is described as follows: Recombinant Nampt inhibition assay. In kind it is biochemical. Particulars: read-out: IC50, inhibition of recombinant Nampt activity; colorimetric assay.
Data set [3] has as its system 184A1. The data set is described as follows: MTT assay, 184A1 cells, 72 h. In kind it is cell-based. To be noted: read-out: IC50 (nM) ± SD (n) 184A1, 184A1 noncancerous Nampt-dependent human breast epithelium cells, n=4.
For data set [4] the following is noted: continuous intravenous infusion for 4 consecutive days, patients; cited from earlier work.

T1 sequence (P43490 whole entry): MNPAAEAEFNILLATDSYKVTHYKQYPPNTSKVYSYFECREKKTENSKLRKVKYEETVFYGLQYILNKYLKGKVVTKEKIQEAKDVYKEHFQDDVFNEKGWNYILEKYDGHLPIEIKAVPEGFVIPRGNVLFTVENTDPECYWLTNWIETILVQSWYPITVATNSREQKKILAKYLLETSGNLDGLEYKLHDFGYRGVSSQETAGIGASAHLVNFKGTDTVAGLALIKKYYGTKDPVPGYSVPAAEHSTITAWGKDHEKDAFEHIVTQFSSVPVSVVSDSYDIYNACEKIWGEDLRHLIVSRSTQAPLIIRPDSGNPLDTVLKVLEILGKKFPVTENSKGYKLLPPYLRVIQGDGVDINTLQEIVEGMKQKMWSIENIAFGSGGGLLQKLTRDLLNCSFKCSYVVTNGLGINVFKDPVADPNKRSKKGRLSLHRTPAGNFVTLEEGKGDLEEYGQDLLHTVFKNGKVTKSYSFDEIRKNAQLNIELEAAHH

For the molecule “1-(4′-(trans-3″-(3‴-pyridyl)acrylamido)butyl)-1,7-dicarbadodecaborane [MC4-PPEA]”, the IC50 (commonly the concentration needed to halve the response being measured) in data set [1] (read-out: IC50, inhibition of Nampt, previously reported) was 4.2 nM. Besides, the “fold higher Nampt inhibitory activity than FK866” value in data set [1] (relative to FK866) is recorded as ~ 100 fold. As for “1-(hydroxymethyl)-7-(4′-(trans-3″-(3′″-pyridyl)acrylamido)butyl)-1,7-dicarbadodecaborane [hm-MC4-PPEA]”, the values for the IC50 in data set [2] and in data set [3] were 6.8 nM and 1.9 ± 0.4 nM, respectively. On to `O=C(/C=C/c1cccnc1)NCCCCC1CCN(C(=O)c2ccccc2)CC1` [FK866], for which, in data set [4], the dose-limiting toxicity entry is on record as “thrombocytopenia”.
